# Assay results: patent publication USRE39056E1, “4-Azasteroids for treatment of hyperandrogenic conditions” (Merck & Co, Inc., priority 1995, dated 2006)
# Where two headings read alike, the source gives them in different places.
# Tests used:
# type 1 5α-reductase = target: T1, type 1 5α-reductase (Homo sapiens, UniProt P18405); test: 5α-reductase assay, type 1 (human scalp homogenate), inhibition studies; type: biochemical
# T1 construct: Preparation of Human Prostatic and Scalp 5α-reductases; from tissue; host or cells: human scalp (crude nuclear pellet of the homogenate)
# T1 sequence (P18405 1-259): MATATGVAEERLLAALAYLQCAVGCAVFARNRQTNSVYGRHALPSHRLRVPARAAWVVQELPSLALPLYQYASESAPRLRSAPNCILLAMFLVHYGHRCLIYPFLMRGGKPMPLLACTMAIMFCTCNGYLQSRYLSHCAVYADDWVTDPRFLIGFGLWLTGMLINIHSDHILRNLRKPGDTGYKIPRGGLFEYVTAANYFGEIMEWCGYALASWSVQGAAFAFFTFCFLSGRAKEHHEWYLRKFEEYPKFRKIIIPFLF
# Protocol: (§1) Samples of human tissue were pulverized using a freezer mill and homogenized in 40 mM potassium phosphate, pH 6.5, 5 mM magnesium sulfate, 25 mM potassium chloride, 1 mM phenylmethyl-sulfonyl fluoride, 1 mM dithiothreitol (DTT) containing 0.25 M sucrose using a Potter-Elvehjem homogenizer. A crude nuclear pellet was prepared by centrifugation of the homogenate at 1,500× G for 15 min. The crude nuclear pellet was washed two times and resuspended in two volumes of buffer. Glycerol was added to the resuspended pellet to a final concentration of 20%. The enzyme suspension was frozen in aliquots at −80° C.
# (§2) The reaction mixture for the type 1 5α-reductase contained 40 mM potassium phosphate, pH 6.5, […] [7-^3H]-testosterone, 1 mM dithiothreitol and 500 μM NADPH in a final volume of 100 μL. The reaction mixture for the type 2 5α-reductase contained 40 mM sodium citrate, pH 5.5 0.3 mM [7-^3H]-testosterone, 1 mM dithiothreitol and 500 μM NADPH in a final volume of 100 μL. Typically, the assay was initiated by the addition of 50-100 μg prostatic homogenate or 75-200 μg scalp homogenate and incubated at 37° C. After 10-50 min. the reaction was quenched by extraction with 250 μL of a mixture of 70% cyclohexane: 30% ethyl acetate containing 10 μg each DHT and T. The aqueous and organic layers were separated by centrifugation at 14,000 rpm in an Eppendorf microfuge. The organic layer was subjected to normal phase HPLC (10 cm Whatman partisil 5 silica column established in 1 ml/min 70% cyclohexane: 30% ethyl acetate; retention times: DHT, 6.8-7.2 min.; androstanediol, 7.6-8.0 min.; T, 9.1-9.7 min.). […] The conversion of T to DHT was monitored using the radioactivity flow detector by mixing the HPLC effluent with one volume of Flo Scint 1 (Radiomatic).
# (§3) Compounds were dissolved in 100% ethanol. The compound to be tested was pre-incubated with the enzyme (either 5α-reductase type 1 or 2) prior to initiation by addition of substrate testosterone. […] Representative compounds of this invention were tested in the above described assay for 5α-reductase type 1 and type 2 inhibition.
# type 2 5α-reductase = target: T2, type 2 5α-reductase (Homo sapiens, UniProt P31213); test: 5α-reductase assay, type 2 (human prostatic homogenate), inhibition studies; type: biochemical
# T2 construct: Preparation of Human Prostatic and Scalp 5α-reductases; from tissue; host or cells: human prostate (crude nuclear pellet of the homogenate)
# T2 sequence (P31213 1-254): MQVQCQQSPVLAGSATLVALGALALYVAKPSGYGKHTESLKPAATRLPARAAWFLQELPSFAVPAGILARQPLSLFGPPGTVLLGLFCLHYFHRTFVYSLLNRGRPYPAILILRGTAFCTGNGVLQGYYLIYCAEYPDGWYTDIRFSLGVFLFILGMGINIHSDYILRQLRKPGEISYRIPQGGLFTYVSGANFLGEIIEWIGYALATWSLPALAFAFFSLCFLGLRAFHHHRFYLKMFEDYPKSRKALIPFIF
# Protocol: as §1, §2, §3
# human androgen receptor = target: T3, human androgen receptor (Homo sapiens, UniProt P10275); test: Human androgen receptor activity assay (anti-androgen activity, hAR); type: binding
# T3 sequence (P10275 1-920): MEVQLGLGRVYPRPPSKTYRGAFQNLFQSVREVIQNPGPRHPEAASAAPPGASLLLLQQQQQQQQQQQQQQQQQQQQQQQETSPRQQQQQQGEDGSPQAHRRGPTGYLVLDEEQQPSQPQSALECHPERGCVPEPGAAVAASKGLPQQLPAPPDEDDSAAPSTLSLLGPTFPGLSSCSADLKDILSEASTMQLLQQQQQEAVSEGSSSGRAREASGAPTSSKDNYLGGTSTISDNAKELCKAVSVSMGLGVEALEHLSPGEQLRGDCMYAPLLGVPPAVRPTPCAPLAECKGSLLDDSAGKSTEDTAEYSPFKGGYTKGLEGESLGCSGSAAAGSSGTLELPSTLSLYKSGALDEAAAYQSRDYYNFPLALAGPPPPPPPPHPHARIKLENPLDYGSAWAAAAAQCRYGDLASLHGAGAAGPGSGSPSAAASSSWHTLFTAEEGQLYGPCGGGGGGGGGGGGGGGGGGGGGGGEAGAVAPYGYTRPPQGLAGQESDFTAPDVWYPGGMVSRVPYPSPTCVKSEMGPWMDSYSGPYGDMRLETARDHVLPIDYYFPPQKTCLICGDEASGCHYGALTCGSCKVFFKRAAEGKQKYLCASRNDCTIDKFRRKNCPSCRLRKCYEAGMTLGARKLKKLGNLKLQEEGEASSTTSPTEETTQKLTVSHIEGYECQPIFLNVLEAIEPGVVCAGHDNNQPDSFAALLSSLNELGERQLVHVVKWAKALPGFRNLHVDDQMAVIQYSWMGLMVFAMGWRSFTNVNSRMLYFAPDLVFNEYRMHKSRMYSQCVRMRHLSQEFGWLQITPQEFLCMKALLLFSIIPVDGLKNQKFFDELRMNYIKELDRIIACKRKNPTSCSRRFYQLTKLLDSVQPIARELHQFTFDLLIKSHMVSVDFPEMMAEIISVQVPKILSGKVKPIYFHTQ
# [1] = human, conversion of testosterone to DHT, pH 6.5, read-out: IC50 Type 1 5aR
# [2] = human, conversion of testosterone to DHT, pH 5.5, read-out: IC50 Type 2 5aR
# [3] = human, anti-androgen activity, read-out: IC50 hAR
Compound,IC50 (type 1 5α-reductase) [nM],IC50 (type 2 5α-reductase) [nM],IC50 (human androgen receptor) [nM],IC50 (type 1 5α-reductase; [1]) [nM],IC50 (type 2 5α-reductase; [2]) [nM],IC50 (human androgen receptor; [3]) [nM]
"COc1ccccc1NC(=O)[C@H]1CC[C@H]2[C@@H]3CC[C@H]4N(C)C(=O)C=C[C@]4(C)[C@H]3CC[C@]12C [Example 2, N-(2-methoxyphenyl)-3-oxo-4-aza-4-methyl-5α-androst-1-ene-17β-carboxamide]",20,100,40,–,–,–
"CN1C(=O)C=C[C@]2(C)[C@H]3CC[C@]4(C)[C@@H](C(=O)NC(c5ccccc5)c5ccccc5)CC[C@H]4[C@@H]3CC[C@@H]12 [Example 10, N-(diphenylmethyl)-4-methyl-3-oxo-4-aza-5α-androst-1-ene-17-β-carboxamide]",–,–,–,20,2,40
"CN1C(=O)C=C[C@]2(C)[C@H]3CC[C@]4(C)[C@@H](C(=O)Nc5ccccc5F)CC[C@H]4[C@@H]3CC[C@@H]12 [Example 3, N-(2-fluorophenyl)-3-oxo-4-aza-4-methyl-5α-androst-1-ene-17β-carboxamide]",20,60,9,–,–,–
"CN1C(=O)C=C[C@]2(C)[C@H]3CC[C@]4(C)[C@@H](C(=O)Nc5cc(C(F)(F)F)ccc5C(F)(F)F)CC[C@H]4[C@@H]3CC[C@@H]12 [Example 7, N-(2,5-bistrifluoromethyl-phenyl)-3-oxo-4-aza-4-methyl-5α-androst-1-ene-17β-carboxamide]",4,20,20,–,–,–
"CN1C(=O)C=C[C@]2(C)[C@H]3CC[C@]4(C)[C@@H](C(=O)Nc5ccc(Cl)cc5)CC[C@H]4[C@@H]3CC[C@@H]12 [Example 1, N-(4-chlorophenyl)-3-oxo-4-methyl-4-aza-5α-androst-1-ene-17β-carboxamide]",40,100,–,–,–,10
"CN1C(=O)C=C[C@]2(C)[C@H]3CC[C@]4(C)[C@@H](C(=O)Nc5ccccc5Cl)CC[C@H]4[C@@H]3CC[C@@H]12 [Example 6, N-(2-chlorophenyl)-3-oxo-4-aza-4-methyl-5α-androst-1-ene-17β-carboxamide]",6,10,8,–,–,–
"CN1C(=O)C=C[C@]2(C)[C@H]3CC[C@]4(C)[C@@H](C(=O)Nc5ccccc5C(F)(F)F)CC[C@H]4[C@@H]3CC[C@@H]12 [Example 4, N-(2-trifluoromethyl-phenyl)-3-oxo-4-aza-4-methyl-5α-androst-1-ene-17β-carboxamide]",2,7,30,–,–,–
"Cc1ccccc1NC(=O)[C@H]1CC[C@H]2[C@@H]3CC[C@H]4N(C)C(=O)C=C[C@]4(C)[C@H]3CC[C@]12C [Example 5, N-(2-methylphenyl)-3-oxo-4-aza-4-methyl-5α-androst-1-ene-17β-carboxamide]",20,20,30,–,–,–
"CN(C(=O)[C@H]1CC[C@H]2[C@@H]3CC[C@H]4N(C)C(=O)C=C[C@]4(C)[C@H]3CC[C@]12C)C(c1ccccc1)c1ccccc1 [Example 11, N-(diphenylmethyl)-N-(methyl)-4-methyl-3-oxo4-aza-5α-androst-1-ene-17-β-carboxamide]",–,–,–,3,0.3,850
